From US9018242B2, “Salt form of tyrosine kinase inhibitor” (Jiangsu Simcere Pharmaceutical R&D Co., Ltd, priority 2011, dated 2015)

What was measured:
[1] = Hygroscopicity measurement (weight gain); format: physicochemical; details: 25±1° C., relative humidity 80±2%, 24 hours
Method: The method for measuring the hygroscopicity may include: placing a certain amount of a sample to be tested into a precisely weighed glass weighing bottle (m1) with a plug and precisely weighing (m2); placing the opened weighing bottle into a thermostatic dryer (with saturated ammonium sulfate solution placed at the bottom, with a relative humidity of 80±2%) at 25±1° C. for 24 hours; covering the weighing bottle with the plug and precisely weighing (m3), and calculating the percent of weight gain of the sample to be tested according to the following equation: […]
The measurement method includes: placing a certain amount of sample to be tested into a precisely weighed glass weighing bottle (m1) with a plug and precisely weighing (m2); placing the opened weighing bottle in a thermostated dryer (with saturated ammonium sulfate solution placed at the bottom, with a relative humidity of 80±2%) at 25±1° C. for 24 hours; covering the weighing bottle with the plug and precisely weighing (m3).
Characterization of the hygroscopicity and definition of the hygroscopic weight gain:
Deliquescence: sufficient moisture was absorbed to form liquid;
Slight hygroscopicity: hygroscopic weight gain was less than 2% and not less than 0.2%: […]

[2] = Solubility in water by HPLC; format: physicochemical; details: purified water, 25° C.; for solubility at 30 min: thermodynamic from solid
Method: Liquid chromatograph: Agilent 1200 HPLC system (diode array detector), ChemStation
Mobile phase: acetonitrile/water
Detection wavelength: 264 nm
About 100 mg sample to be tested was precisely weighed and placed into a 100 ml graduated flask at 25° C.; an appropriate amount of solvent [acetonitrile/water (80:20)] was added to dissolve the sample under ultrasonic sound, and the solution was diluted to a given scale and shaken up; 10 μl resulting solution was precisely measured and loaded into the liquid chromatograph, the chromatogram was recorded, and the peak area Scontrol was measured.
10 ml purified water was measured and placed into a 25 ml Kjeldahl flask. The sample to be tested was gradually added at 25° C. until an insoluble solid appeared in the solution. The solution was treated under ultrasonic sound for 30 min and the insoluble solid was filtered off. 10 μl filtrate was precisely weighed and loaded into the liquid chromatograph, the chromatogram was recorded, and the peak area Stest was measured.

[3] = Plasma exposure (AUC) in rats after gavage administration; format: in vivo; details: rat, po, male SD rats, 10 mg/kg (based on pharmaceutically active compound), salts dissolved in pure water, active compound as suspension in 0.5% CMC, up to 24 h
Method: Laboratory animal: male SD rats
Dosage: 10 mg/kg (based on pharmaceutically active compound)
Formulation for salts: dissolving in pure water
(§1) Formulation for pharmaceutically active compound: suspension in CMC (carboxymethylcellulose), 0.5%
Animal Grouping and Testing Course:
Each group includes three male rats having a weight of 180 to 210 g. Gavage administration was performed; the blood was collected at point of time: 5 min, 15 min, 30 min, 45 min, 1 h, 2 h, 4 h, 6 h, 10 h and 24 h; about 250 μl blood was collected from orbital venous plexus into a heparin-containing tube, centrifuged, and 100 μl plasma was used for LC-MS analysis.

[4] = tested on: human colon cancer HT-29 xenografts; assay: Therapeutic effect on human colon cancer HT-29 xenografts in nude mice; format: in vivo, BALB/cA-nude mice; details: 40 mg/kg (based on pharmaceutically active compound), gavage for 21 days, L-malate in pure water, active compound as suspension in 0.5% CMC
Method: Laboratory animal: BALB/cA-nude mice, 6-7 weeks, ♀
Dosage: 40 mg/kg (based on pharmaceutically active compound)
Formulation for L-malate: dissolving in pure water
as §1
Nude mice were subcutaneously inoculated with human colon cancer HT-29 cells. After the tumor grew to a size of 150 to 250 mm^3, the animals were randomly divided into three groups (d0). The animals were continuously administered through gavage for 21 days, and the tumor volume was measured 2 to 3 times per week. The tumor volume (V) was calculated according to the equation: V=1/2×a×b^2, where a and b represent length and width respectively.
The relative proliferation of tumor=T/C(%)=(T−T0)/(C−C0)×100, where T and C are the tumor volumes at the end of experiment, T0 and C0 are the tumor volumes at the start of experiment; the tumor inhibition rate=1−T/C(%).

| Compound | Hygroscopicity [1] | solubility at 30 min [2] | AUC(0-t) [3] | Solubility in Water [2] | Tumor Inhibition Rate [4] |
| --- | --- | --- | --- | --- | --- |
| CC(=O)O.CCN(CC)CCNC(=O)c1c(C)[nH]c2c1CCC/C2=C1/C(=O)Nc2ccc(F)cc21 [Acetate, (Z)—N-[2-(diethylamino)ethyl]-2-methyl-7-(1,2-dihydro-5-fluoro-2-oxo-3H-indol-3-ylidene)-4,5,6,7-tetrahydro-1H-indol-3-carboxamide acetate] | Strong hygroscopicity (hygroscopic weight gain was not less than 15%) | 30.7 mg/mL |  |  |  |
| CCN(CC)CCNC(=O)c1c(C)[nH]c2c1CCC/C2=C1/C(=O)Nc2ccc(F)cc21.O=S(=O)(O)c1ccccc1 [Benzenesulfonate, (Z)—N-[2-(diethylamino)ethyl]-2-methyl-7-(1,2-dihydro-5-fluoro-2-oxo-3H-indol-3-ylidene)-4,5,6,7-tetrahydro-1H-indol-3-carboxamide benzenesulfonate] | Hygroscopicity (hygroscopic weight gain was less than 15% and not less than 2%) | 19.2 mg/mL |  |  |  |
| CCN(CC)CCNC(=O)c1c(C)[nH]c2c1CCC/C2=C1/C(=O)Nc2ccc(F)cc21.O=C(O)CC(O)(CC(=O)O)C(=O)O [Citrate, (Z)—N-[2-(diethylamino)ethyl]-2-methyl-7-(1,2-dihydro-5-fluoro-2-oxo-3H-indol-3-ylidene)-4,5,6,7-tetrahydro-1H-indol-3-carboxamide citrate] | Slight hygroscopicity (hygroscopic weight gain was less than 2% and not less than 0.2%) | 38.2 mg/mL | 838 ng·h/mL |  |  |
| CCN(CC)CCNC(=O)c1c(C)[nH]c2c1CCC/C2=C1/C(=O)Nc2ccc(F)cc21.O=C(O)/C=C/C(=O)O [Fumarate, (Z)—N-[2-(diethylamino)ethyl]-2-methyl-7-(1,2-dihydro-5-fluoro-2-oxo-3H-indol-3-ylidene)-4,5,6,7-tetrahydro-1H-indol-3-carboxamide fumarate] | Slight hygroscopicity (hygroscopic weight gain was less than 2% and not less than 0.2%) | 0.0168 mg/mL |  |  |  |
| Br.CCN(CC)CCNC(=O)c1c(C)[nH]c2c1CCC/C2=C1/C(=O)Nc2ccc(F)cc21 [Hydrobromate, (Z)—N-[2-(diethylamino)ethyl]-2-methyl-7-(1,2-dihydro-5-fluoro-2-oxo-3H-indol-3-ylidene)-4,5,6,7-tetrahydro-1H-indol-3-carboxamide hydrobromate] | Almost no hygroscopicity |  |  | 3.5922 mg/mL |  |
| CCN(CC)CCNC(=O)c1c(C)[nH]c2c1CCC/C2=C1/C(=O)Nc2ccc(F)cc21.Cl [Hydrochloride, (Z)—N-[2-(diethylamino)ethyl]-2-methyl-7-(1,2-dihydro-5-fluoro-2-oxo-3H-indol-3-ylidene)-4,5,6,7-tetrahydro-1H-indol-3-carboxamide hydrochloride] | Almost no hygroscopicity | 22.8 mg/mL | 185 ng·h/mL |  |  |
| CCN(CC)CCNC(=O)c1c(C)[nH]c2c1CCC/C2=C1/C(=O)Nc2ccc(F)cc21.O=C(O)C[C@H](O)C(=O)O [L-malate, (Z)—N-[2-(diethylamino)ethyl]-2-methyl-7-(1,2-dihydro-5-fluoro-2-oxo-3H-indol-3-ylidene)-4,5,6,7-tetrahydro-1H-indol-3-carboxamide L-malate] | Almost no hygroscopicity | 38.6 mg/mL | 1490 ng·h/mL |  | 54% |
| CCN(CC)CCNC(=O)c1c(C)[nH]c2c1CCC/C2=C1/C(=O)Nc2ccc(F)cc21.O=C(O)C(O)C(O)C(=O)O [L-tartrate, (Z)—N-[2-(diethylamino)ethyl]-2-methyl-7-(1,2-dihydro-5-fluoro-2-oxo-3H-indol-3-ylidene)-4,5,6,7-tetrahydro-1H-indol-3-carboxamide L-tartrate] | Slight hygroscopicity (hygroscopic weight gain was less than 2% and not less than 0.2%) | 10.6 mg/mL |  |  |  |
| CC(O)C(=O)O.CCN(CC)CCNC(=O)c1c(C)[nH]c2c1CCC/C2=C1/C(=O)Nc2ccc(F)cc21 [Lactate, (Z)—N-[2-(diethylamino)ethyl]-2-methyl-7-(1,2-dihydro-5-fluoro-2-oxo-3H-indol-3-ylidene)-4,5,6,7-tetrahydro-1H-indol-3-carboxamide lactate] | Hygroscopicity (hygroscopic weight gain was less than 15% and not less than 2%) | 24 mg/mL | 652 ng·h/mL |  |  |
| CCN(CC)CCNC(=O)c1c(C)[nH]c2c1CCC/C2=C1/C(=O)Nc2ccc(F)cc21.O=C(O)/C=C\C(=O)O [Maleate, (Z)—N-[2-(diethylamino)ethyl]-2-methyl-7-(1,2-dihydro-5-fluoro-2-oxo-3H-indol-3-ylidene)-4,5,6,7-tetrahydro-1H-indol-3-carboxamide maleate] | Slight hygroscopicity (hygroscopic weight gain was less than 2% and not less than 0.2%) | 1.32 mg/mL |  |  |  |
| CCN(CC)CCNC(=O)c1c(C)[nH]c2c1CCC/C2=C1/C(=O)Nc2ccc(F)cc21.CS(=O)(=O)O [Methanesulfonate, (Z)—N-[2-(diethylamino)ethyl]-2-methyl-7-(1,2-dihydro-5-fluoro-2-oxo-3H-indol-3-ylidene)-4,5,6,7-tetrahydro-1H-indol-3-carboxamide methanesulfonate] | Strong hygroscopicity (hygroscopic weight gain was not less than 15%) | 12.3 mg/mL |  |  |  |
| CCN(CC)CCNC(=O)c1c(C)[nH]c2c1CCC/C2=C1/C(=O)Nc2ccc(F)cc21.Cc1ccc(S(=O)(=O)O)cc1 [P-toluenesulfonate, (Z)—N-[2-(diethylamino)ethyl]-2-methyl-7-(1,2-dihydro-5-fluoro-2-oxo-3H-indol-3-ylidene)-4,5,6,7-tetrahydro-1H-indol-3-carboxamide p-toluenesulfonate] | Slight hygroscopicity (hygroscopic weight gain was less than 2% and not less than 0.2%) | 0.419 mg/mL |  |  |  |
| CCN(CC)CCNC(=O)c1c(C)[nH]c2c1CCC/C2=C1/C(=O)Nc2ccc(F)cc21.O=P(O)(O)O [Phosphate, (Z)—N-[2-(diethylamino)ethyl]-2-methyl-7-(1,2-dihydro-5-fluoro-2-oxo-3H-indol-3-ylidene)-4,5,6,7-tetrahydro-1H-indol-3-carboxamide phosphate] | Slight hygroscopicity (hygroscopic weight gain was less than 2% and not less than 0.2%) | 29.7 mg/mL | 322 ng·h/mL |  |  |
| CCN(CC)CCNC(=O)c1c(C)[nH]c2c1CCC/C2=C1/C(=O)Nc2ccc(F)cc21.O=C(O)CCC(=O)O [Succinate, (Z)—N-[2-(diethylamino)ethyl]-2-methyl-7-(1,2-dihydro-5-fluoro-2-oxo-3H-indol-3-ylidene)-4,5,6,7-tetrahydro-1H-indol-3-carboxamide succinate] | Slight hygroscopicity (hygroscopic weight gain was less than 2% and not less than 0.2%) | 13.4 mg/mL |  |  |  |
| CCN(CC)CCNC(=O)c1c(C)[nH]c2c1CCC/C2=C1/C(=O)Nc2ccc(F)cc21.O=S(=O)(O)O [Sulfate, (Z)—N-[2-(diethylamino)ethyl]-2-methyl-7-(1,2-dihydro-5-fluoro-2-oxo-3H-indol-3-ylidene)-4,5,6,7-tetrahydro-1H-indol-3-carboxamide sulfate] | Slight hygroscopicity (hygroscopic weight gain was less than 2% and not less than 0.2%) | 0.236 mg/mL |  |  |  |
| (Z)—N-[2-(diethylamino)ethyl]-2-methyl-7-(1,2-dihydro-5-fluoro-2-oxo-3H-indol-3-ylidene)-4,5,6,7-tetrahydro-1H-indol-3-carboxamide L-mandelate | Hygroscopicity (hygroscopic weight gain was less than 15% and not less than 2%) |  |  | 14.7218 mg/mL |  |
